Data set [1] concerns adhesion molecules VACM-1, ICAM-1, and E-selectin. Conditions: cited from earlier work.
Data set [2] concerns N2 worms. Put plainly: Paraquat-induced oxidative stress in N2 worms. It is filed as in vivo, Caenorhabditis elegans. Particulars: FIG. 2C. The method, then:
Encouraged by the clear life-extension effect on worm model under regular culture conditions in the above example, the protective effect of ergothioneine under stresses was examined. In the first experiment, the worm was treated with paraquat to induce oxidative stress. Under the paraquat-induced oxidative stress conditions, N2 worms' life span was decreased by nearly 50% (FIG. 2C vs. FIG. 2A).

The subject of data set [3] is worm Eat-2 mutant. Nature of the data set: Lifespan of worm Eat-2 mutant (caloric restriction model). It is filed as in vivo, Caenorhabditis elegans. Particulars: FIG. 2B. The method, then:
(§1) At 150 μM, the lifespan of the wild type worm can be extended by 30-40% (FIG. 2A). Over the last two decades, there is numerous evidence supporting the life-extension effect by caloric restriction from various model systems (yeast, worm, fly, and mouse). Thus, the effect of ergothioneine on worm Eat-2 mutant was also examined.

Data set [4] deals with daf-16 mutant worm. Nature of the data set: Lifespan of daf-16 mutant worm. The format is in vivo, Caenorhabditis elegans. Particulars: FIG. 3A. The text has this:
To address this issue, the large collection of C. elegans mutants in Caenorhabditis Genetics Center was again utilized in this example. Among the mutants examined, the daf-16 mutant results stood out (FIGS. 3A, 3B, and 3C). […] Among genes of the IIS pathway, daf-2 encodes an insulin-like receptor, and it is the starting point of the pathway that eventually leads to daf-16. Daf-16 is the hub, where information from several different pathways merge and then use to regulate many physiological processes. Worm daf-16 mutant has an average life-span that is […] the N2 worm (FIGS. 3A, 3B, and 3C; FIGS. 4-6).

The subject of data set [5] is pancreatic/renal kallikrein (Klk1) related Kallikrein system. Put plainly: RNA-seq analysis of peri-infarct area of the MCAO model. It is filed as in vivo, mice. Conditions: FIG. 8. The text has this: FIGS. 8A and 8B that the results of RNA-seq analysis of peri-infarct area of the MCAO model.
KLK1 is a key protein in the Kallikrein-Kinin system (KKS). The KKS promotes local blood flow and vasodilation, and may also reduce inflammation and oxidative stress. KLK1 is a serine protease that plays a critical role in regulating blood pressure, blood flow, and microcirculation. It's a secretory product of the salivary glands and the pancreas, and is also found in the kidney. KLK1 has a major function of reducing blood pressure by releasing the peptide hormone Lys-bradykinin (kallidin) from low molecular weight kininogen. This affects muscle relaxation and inflammatory processes. KLK1 also has anti-inflammatory, anti-apoptotic, anti-fibrotic, and anti-oxidative actions.

In data set [6] the test system is N2 C. elegans. Nature of the data set: Lifespan of N2 C. elegans under regular culture conditions. The format is in vivo, Caenorhabditis elegans. Conditions: FIG. 2A.
Source text: In this example, the biological functions of ergothioneine were investigated using (C. elegans as the model system. Using (C. elegans as the model has several prominent advantages, including short life cycle, simple experimental manipulation, and rich collection of publicly available genetic mutants (e.g., Caenorhabditis Genetics Center). In addition, its genome comprises 2/3 of human disease-related genes.
To test the biological effect of ergothioneine, the first set of experiments was to test the toxicity level of ergothioneine on the worm model. In humans, ergothioneine is enriched up to 2 mM concentration in many parts of the body.
as §1

For data set [7] the following is noted: in vivo; cited from earlier work.
For data set [8] the following is noted: through transporter OCTN1; humans; cited from earlier work.
For data set [9], the system named is accelerated ageing mouse model. Put plainly: Accelerated ageing mouse model. It is filed as in vivo. The text has this:
FIGS. 5A, 5B, 5C, and 5D show the animal study in rats (FIG. 5A: untreated disease group; FIG. 5B treated disease group).
Another aspect provides a method of treating a subject diagnosed to have a premature ageing disease or condition, comprising treating the subject with a therapeutically effective amount of compound I. In some embodiments, the premature ageing disease is Hutchinson-Gilford progeria syndrome. In some embodiments, the premature ageing disease is Werner syndrome. In some embodiments, the premature ageing disease or condition is premature ageing of skin, mucous membranes, scalp and/or hair of the subject. In some embodiments, the method may further include a step of identifying or determining the subject as having premature ageing disease or condition. Procedures of the determination step for premature ageing disease or condition are generally known in the field. As shown in the example section and FIGS. 4-6, the study (accelerated ageing mouse model) analyzed the physical appearance and activities of two groups (with and without the feeding of Compound I, 20 mg/kg daily) over the period of about 1 year.

Data set [10] deals with N2 worm. Put plainly: Heat shock survival of N2 worms. It is filed as in vivo, Caenorhabditis elegans. Particulars: moved from 20° C. to 42° C.; a few hundred micromolar; without compound 3 hours; FIG. 2D. The method, then:
Besides the oxidative stress, the protective effect of ergothioneine for the worm under heat shock conditions was also examined. After the worms were cultured multiple days, they were then moved from 20° C. to 42° C. Under such a heat-shock condition, 50% of the worm died within 3 hours. However, in the presence of a few hundred micromolar concentration of ergothioneine, it extends N2 worm's average survival time from 3 hours to nearly 8-9 hours (FIG. 2D). Therefore, besides its life-extension effects under regular culture conditions, ergothioneine clearly offers protective effects to worms under oxidative stress and heat shock conditions.

Data set [11] relates to primary cortical neuron culture. Nature of the data set: Oxygen glucose deprivation of primary cortical neuron culture. The format is cell-based. Particulars: FIG. 5D.
Data set [12] has as its system stroke middle cerebral artery occlusion (MCAO) model. Put plainly: Stroke middle cerebral artery occlusion (MCAO) model. Particulars: MCAO mice, vs vehicle. It is filed as in vivo. The text has this:
FIGS. 7A, 7B, 7C, and 7D show the protective effect of ergothioneine on stroke MCAO model (images of tissue sample (FIG. 7A), infarct volume (FIG. 7B), neurological deficit (FIG. 7C), and cerebral blood flow (CBF) (FIG. 7D) of Sham, vehicle, and ergothioneine treated mice).
The MCAO model is a stroke model that uses mice and rats. The model involves inserting a surgical filament into the external carotid artery and threading it into the internal carotid artery. The filament is inserted to block blood flow for a set period of time, usually 30-120 minutes. The filament is then removed to allow reperfusion, resulting in an ischemic stroke. A sham mouse is a control animal used in […]. Sham procedures are performed on a control group participant to ensure they experience the same effects as those who receive a true operation.
As shown, ergothioneine reduces the infarct size by at least 50%. […] As shown, ergothioneine reduces neurological deficit by at least 40%. […] As shown, ergothioneine […] cerebral blood flow by at least 60%.

[13] abbreviates: 20 mg/kg daily feeding, about 1 year, treated vs untreated group.
[14] abbreviates: mice, compared to untreated mice, FIG. 5C.

Take `C[N+](C)(C)[C@@H](Cc1c[nH]c(=S)[nH]1)C(=O)O` [ergothioneine, Ergothioneine]: the “expression of adhesion molecules VACM-1, ICAM-1, and E-selectin” value in [1] is recorded as “decreases the expression”. Besides, the “protective effect under oxidative stress” value in [2] was “clearly offers protective effects and alleviates the detrimental effects of oxidative stress”. The “life extension of Eat-2 worm mutant” value in data set [3] is “can further extend the life”. Besides, the “life-extension effect in daf-16 mutant” value in data set [4] is reported as “the life-extension effect was abolished”. For the same compound, the “regulation of Klk1 related Kallikrein system (RNA level)” value in data set [5] is given as “up-regulate”. Further, the life-extension effect entry in [6] (50 μM, N2 C. elegans) was “robust life-extension effect”. Besides, the lifespan extension in [6] (150 μM, wild type worm) is 30-40%. Moreover, the blood-brain barrier passage entry in [7] is “can pass through the blood-brain barrier”. Moreover, the “concentration accumulated in many parts of the body” value in data set [8] is “up to 2 mM”. Further, in [9] (20 mg/kg daily feeding, about 1 year), the “effect on the ageing process” value is “could effectively slow down the ageing process”. For the same compound, in [9] (setting [13]), the average weight result is recorded as “higher average weight” and the skin condition result was “more smooth skin condition”. For the same compound, the “physical activity of the untreated group relative to the treated group” value in [9] (20 mg/kg daily feeding, about 1 year, words describe the group without treatment) is recorded as “less active physically”. In data set [9] (setting [14]), the “extension of maximum lifespan” value is “at least 30%” and the “extension of median lifespan” value is “at least 40%”. Besides, the “average survival time under heat shock” value in [10] lay within 8 to 9 h. In addition, the “cell death caused by oxygen glucose deprivation” value in data set [11] is reported as “reverses cell death”. The “reduction of infarct size” value in data set [12] (FIG. 7B) was “at least 50%”. Besides, in data set [12] (FIG. 7C), the “reduction of neurological deficit” value is on record as “at least 40%”. In addition, the “reduction of cerebral blood flow (CBF)” value in data set [12] (FIG. 7D) is recorded as “at least 60%”.

The record behind these values is US20240374572A1, “METHODS FOR EXTENDING THE LIFESPAN OF CELLS AND ORGANISMS” (priority 2021, published 2024).
